Converted amounts (≈) assume the structure as drawn.
What was measured:
Type in all cases: functional
Tetranychus urticae [1] = experiment: Resistance ratio of LC50 for bifenazate-resistant Tetranychus urticae BR-VL (two-spotted spider mite) harboring mitochondrial G126S, S141F and D161G Cytb mutation to LC50 for Tetranychus urticae GSS
Tetranychus urticae [2] = experiment: Toxicity against adult Tetranychus urticae BEL1 (two-spotted spider mite) in bean leaves assessed as mortality treated 24 hr after 2000 mg/L esterase inhibitor, DEF application; conditions: BEL-1, 24 h
Tetranychus urticae [3] = experiment: Toxicity against adult Tetranychus urticae HOL2 (two-spotted spider mite) harboring mitochondrial G126S Cytb mutation in compound pretreated bean leaves assessed as mortality
Tetranychus urticae [4] = experiment: Toxicity against adult Tetranychus urticae HOL3 (two-spotted spider mite) harboring mitochondrial P262T Cytb heteroplasmic mutation in compound pretreated bean leaves assessed as mortality
Tetranychus urticae [5] = experiment: Synergism ratio of LC50 for adult Tetranychus urticae BEL-1 (two-spotted spider mite) to LC50 for adult Tetranychus urticae BEL-1 in presence of 2000 mg/L GST inhibitor, DEM application
Tetranychus urticae [6] = experiment: Toxicity against female adult Tetranychus urticae (two-spotted spider mite) F1 progeny generated from reciprocal cross between female GSS and male BEL1 in compound pretreated bean leaves assesed as mortality
Tetranychus urticae [7] = experiment: Toxicity against adult Tetranychus urticae BEL1 (two-spotted spider mite) in bean leaves assessed as mortality treated 24 hr after 2000 mg/L GST inhibitor, DEM application; conditions: BEL-1, 24 h
Tetranychus urticae [8] = experiment: Resistance ratio of LC50 for Tetranychus urticae HOL2 (two-spotted spider mite) harboring mitochondrial G126S Cytb mutation to LC50 for Tetranychus urticae GSS
Tetranychus urticae [9] = experiment: Resistance ratio of LC50 for METI-resistant Tetranychus urticae MR-VP (two-spotted spider mite) to LC50 for Tetranychus urticae GSS
Tetranychus urticae [10] = experiment: Toxicity against adult Tetranychus urticae GSS (two-spotted spider mite) in bean leaves assessed as mortality treated 24 hr after 1000 mg/L esterase inhibitor, DEF application
Tetranychus urticae [11] = experiment: Toxicity against adult Tetranychus urticae HOL4 (two-spotted spider mite) harboring mitochondrial G126S Cytb mutation in compound pretreated bean leaves assessed as mortality
Tetranychus urticae [12] = experiment: Synergism ratio of LC50 for adult Tetranychus urticae BR-VL (two-spotted spider mite) to LC50 for adult Tetranychus urticae BR-VL in presence of 2000 mg/L cytochrome P450 monoxygenase inhibitor, PBO
Tetranychus urticae [13] = experiment: Toxicity against adult Tetranychus urticae MR-VL (two-spotted spider mite) in compound pretreated bean leaves assessed as mortality
Tetranychus urticae [14] = experiment: Toxicity against adult bifenazate-resistant Tetranychus urticae BR-VL (two-spotted spider mite) harboring mitochondrial G126S, S141F and D161G Cytb mutation in compound pretreated bean leaves assessed as mortality
Tetranychus urticae [15] = experiment: Synergism ratio of LC50 for adult Tetranychus urticae GSS (two-spotted spider mite) to LC50 for adult Tetranychus urticae GSS in presence of 1000 mg/L esterase inhibitor, DEF application
Tetranychus urticae [16] = experiment: Toxicity against adult bifenazate-susceptible Tetranychus urticae LS-VL (two-spotted spider mite) in compound pretreated bean leaves assessed as mortality
Tetranychus urticae [17] = experiment: Toxicity against adult Tetranychus urticae GSS (two-spotted spider mite) in compound pretreated bean leaves assessed as mortality
Tetranychus urticae [18] = experiment: Toxicity against adult Tetranychus urticae GSS (two-spotted spider mite) in bean leaves assessed as mortality treated 24 hr after 2000 mg/L GST inhibitor, DEM application
Tetranychus urticae [19] = experiment: Toxicity against adult Tetranychus urticae BR-VL (two-spotted spider mite) in bean leaves assessed as mortality treated 24 hr after 2000 mg/L esterase inhibitor, DEF application
Tetranychus urticae [20] = experiment: Toxicity against adult Tetranychus urticae BR-VL (two-spotted spider mite) in bean leaves assessed as mortality treated 24 hr after 2000 mg/L cytochrome P450 monoxygenase inhibitor, PBO application
Tetranychus urticae [21] = experiment: Toxicity against female adult Tetranychus urticae (two-spotted spider mite) F1 progeny generated from reciprocal cross between female BEL1 and male GSS in compound pretreated bean leaves assesed as mortality
Tetranychus urticae [22] = experiment: Toxicity against female adult Tetranychus urticae (two-spotted spider mite) F1 progeny generated from reciprocal cross between female BR-VL and male GSS in compound pretreated bean leaves assesed as mortality
Tetranychus urticae [23] = experiment: Toxicity against female adult Tetranychus urticae (two-spotted spider mite) F1 progeny generated from reciprocal cross between female GSS and male BR-VL in compound pretreated bean leaves assesed as mortality
Tetranychus urticae [24] = experiment: Resistance ratio of LC50 for Tetranychus urticae (two-spotted spider mite) HOL4 harboring mitochondrial G126S Cytb mutation to LC50 for Tetranychus urticae GSS
Tetranychus urticae [25] = experiment: Synergism ratio of LC50 for adult Tetranychus urticae BEL-1 (two-spotted spider mite) to LC50 for adult Tetranychus urticae BEL-1 in presence of 2000 mg/L esterase inhibitor, DEF application
Tetranychus urticae [26] = experiment: Toxicity against adult Tetranychus urticae BR-VL (two-spotted spider mite) in bean leaves assessed as mortality treated 24 hr after 2000 mg/L GST inhibitor, DEM application
Tetranychus urticae [27] = experiment: Resistance ratio of LC50 for bifenazate-susceptible Tetranychus urticae LS-VL (two-spotted spider mite) to LC50 for Tetranychus urticae GSS
Tetranychus urticae [28] = experiment: Toxicity against adult Tetranychus urticae HOL1 (two-spotted spider mite) harboring mitochondrial G126S and I136T Cytb mutation in compound pretreated bean leaves assessed as mortality
Tetranychus urticae [29] = experiment: Resistance ratio of LC50 for Tetranychus urticae WI (two-spotted spider mite) to LC50 for Tetranychus urticae GSS
Tetranychus urticae [30] = experiment: Resistance ratio of LC50 for bifenazate-resistant Tetranychus urticae (two-spotted spider mite) BEL1 harboring mitochondrial P262T Cytb fixed mutation to LC50 for Tetranychus urticae GSS
Tetranychus urticae [31] = experiment: Toxicity against adult Tetranychus urticae GSS (two-spotted spider mite) in bean leaves assessed as mortality treated 24 hr after 2000 mg/L cytochrome P450 monoxygenase inhibitor, PBO application
Tetranychus urticae [32] = experiment: Resistance ratio of LC50 for Tetranychus urticae MR-VL (two-spotted spider mite) to LC50 for Tetranychus urticae GSS
Tetranychus urticae [33] = experiment: Toxicity against adult bifenazate-resistant Tetranychus urticae BEL1 (two-spotted spider mite) harboring mitochondrial P262T Cytb fixed mutation in compound pretreated bean leaves assessed as mortality; conditions: BEL-1
Tetranychus urticae [34] = experiment: Synergism ratio of LC50 for adult Tetranychus urticae GSS (two-spotted spider mite) to LC50 for adult Tetranychus urticae GSS in presence of 2000 mg/L cytochrome P450 monoxygenase inhibitor, PBO
Tetranychus urticae [35] = experiment: Toxicity against adult Tetranychus urticae BEL1 (two-spotted spider mite) in bean leaves assessed as mortality treated 24 hr after 2000 mg/L cytochrome P450 monoxygenase inhibitor, PBO application; conditions: BEL-1, 24 h
Tetranychus urticae [36] = experiment: Resistance ratio of LC50 for Tetranychus urticae HOL3 (two-spotted spider mite) harboring mitochondrial P262T Cytb heteroplasmic mutation to LC50 for Tetranychus urticae GSS
Tetranychus urticae [37] = experiment: Synergism ratio of LC50 for adult Tetranychus urticae GSS (two-spotted spider mite) to LC50 for adult Tetranychus urticae GSS in presence of 2000 mg/L GST inhibitor, DEM application
Tetranychus urticae [38] = experiment: Synergism ratio of LC50 for adult Tetranychus urticae BEL-1 (two-spotted spider mite) to LC50 for adult Tetranychus urticae BEL-1 in presence of 2000 mg/L cytochrome P450 monoxygenase inhibitor, PBO
Tetranychus urticae [39] = experiment: Synergism ratio of LC50 for adult Tetranychus urticae BR-VL (two-spotted spider mite) to LC50 for adult Tetranychus urticae BR-VL in presence of 2000 mg/L esterase inhibitor, DEF application
Tetranychus urticae [40] = experiment: Toxicity against adult Tetranychus urticae WI (two-spotted spider mite) in compound pretreated bean leaves assessed as mortality
Tetranychus urticae [41] = experiment: Toxicity against adult METI-resistant Tetranychus urticae MR-VP (two-spotted spider mite) in compound pretreated bean leaves assessed as mortality
Tetranychus urticae [42] = experiment: Resistance ratio of LC50 for Tetranychus urticae HOL1 (two-spotted spider mite) harboring mitochondrial G126S and I136T Cytb mutation to LC50 for Tetranychus urticae GSS
Tetranychus urticae [43] = experiment: Synergism ratio of LC50 for adult Tetranychus urticae BR-VL (two-spotted spider mite) to LC50 for adult Tetranychus urticae BR-VL in presence of 2000 mg/L GST inhibitor, DEM application

CCCCCCCCCCCCC1=C(OC(C)=O)C(=O)c2ccccc2C1=O [ACEQUINOCYL]
RatioLC50 (Tetranychus urticae [1]): 105 | LC50 (Tetranychus urticae [2]): 450 µg/mL (≈ 1170 µM) | LC50 (Tetranychus urticae [3]): 11.2 µg/mL (≈ 29.1 µM) | LC50 (Tetranychus urticae [4]): 126 µg/mL (≈ 328 µM) | RatioLC50 (Tetranychus urticae [5]): 1.1 | LC50 (Tetranychus urticae [6]): 26.2 µg/mL (≈ 68.1 µM) | LC50 (Tetranychus urticae [7]): 484 µg/mL (≈ 1260 µM) | RatioLC50 (Tetranychus urticae [8]): 1 | RatioLC50 (Tetranychus urticae [9]): 2.7 | LC50 (Tetranychus urticae [10]): 9.9 µg/mL (≈ 25.7 µM) | LC50 (Tetranychus urticae [11]): 10.2 µg/mL (≈ 26.5 µM) | RatioLC50 (Tetranychus urticae [12]): 5.6 | LC50 (Tetranychus urticae [13]): 15.8 µg/mL (≈ 41.1 µM) | LC50 (Tetranychus urticae [14]): 1180 µg/mL (≈ 3070 µM) | RatioLC50 (Tetranychus urticae [15]): 1.1 | LC50 (Tetranychus urticae [16]): 10.7 µg/mL (≈ 27.8 µM) | LC50 (Tetranychus urticae [17]): 11.3 µg/mL (≈ 29.4 µM) | LC50 (Tetranychus urticae [18]): 8.3 µg/mL (≈ 21.6 µM) | LC50 (Tetranychus urticae [19]): 1060 µg/mL (≈ 2760 µM) | LC50 (Tetranychus urticae [20]): 209 µg/mL (≈ 544 µM) | LC50 (Tetranychus urticae [21]): 535 µg/mL (≈ 1390 µM) | LC50 (Tetranychus urticae [22]): 1200 µg/mL (≈ 3120 µM) | LC50 (Tetranychus urticae [23]): 22.3 µg/mL (≈ 58 µM) | RatioLC50 (Tetranychus urticae [24]): 0.9 | RatioLC50 (Tetranychus urticae [25]): 1.2 | LC50 (Tetranychus urticae [26]): 782 µg/mL (≈ 2030 µM) | RatioLC50 (Tetranychus urticae [27]): 0.9 | LC50 (Tetranychus urticae [28]): 9.4 µg/mL (≈ 24.4 µM) | RatioLC50 (Tetranychus urticae [29]): 2.3 | RatioLC50 (Tetranychus urticae [30]): 48.5 | LC50 (Tetranychus urticae [31]): 5 µg/mL (≈ 13 µM) | RatioLC50 (Tetranychus urticae [32]): 1.4 | LC50 (Tetranychus urticae [33]): 548 µg/mL (≈ 1430 µM) | RatioLC50 (Tetranychus urticae [34]): 2.26 | LC50 (Tetranychus urticae [35]): 79.4 µg/mL (≈ 206 µM) | RatioLC50 (Tetranychus urticae [36]): 11.1 | RatioLC50 (Tetranychus urticae [37]): 1.4 | RatioLC50 (Tetranychus urticae [38]): 6.9 | RatioLC50 (Tetranychus urticae [39]): 1.1 | LC50 (Tetranychus urticae [40]): 26.5 µg/mL (≈ 68.9 µM) | LC50 (Tetranychus urticae [41]): 30.5 µg/mL (≈ 79.3 µM) | RatioLC50 (Tetranychus urticae [42]): 0.8 | RatioLC50 (Tetranychus urticae [43]): 1.5
